What all share (format): cell-based
The test system of one assay is THP1-Dual KO-TREX1 cells. Description: THP1 TREX1 KO inhibition assay (type 1 interferon response). Particulars: Homo sapiens, 144 h, type 1 interferon (QUANTI-LUC), 1 μM 5-aza-2′-deoxycytidine, six days. The procedure:
Exemplary compounds were tested for their ability to alter the type 1 interferon response in THP1 Dual TREX1 KG cells treated with 5-aza-2′-deoxycytidine. Assay procedures and results are described below.
THP1 Dual TREX1 KG cells were purchased from Invivogen. The THP1-Dual™ KO-TREX1 cells were cultured in RPMI 1640, 10% heat-inactivated fetal bovine serum, 25 mM HEPES, 10 μg/mL blasticidin, and 100 μg/mL zeocin. THP1-Dual™ KO-TREX1 cells were treated with a dose titration of a test compound alone or in the presence of 1 μM 5-aza-2′-deoxycytidine (Sigma-Aldrich, cat #189825). Type 1 Interferon and cell viability were assessed after six days of treatment.
Stock solution of the test compound was prepared in DMSO followed by a three-fold dilution in DMSO. Additional 50× dilution was prepared in cell culture media for each dilution. 10 μL of diluted test compound was then added to a 96-well plate.
THP1-Dual™ KO-TREX1 cells were treated with either 1×PBS or 1 μM 5-aza-2′-deoxycytidine. […] of the THP1-Dual™ KO-TREX1 cells from either treatment were added to each well of the 96-well plate containing the test compound titration at 50,000 cells/well. Cells were incubated at 37° C., 5% CO2 in a humidified incubator for six days. Cells treated with 1 μM 5-aza-2′-deoxycytidine were added at the same density as above and incubated at 37° C., 5% CO2 in a humidified incubator for six days. On day six, 25 μL of cell supernatant was transferred to a 96-well white-walled plate, followed by addition to each well of 50 μL of QUANTI-LUC solution containing stabilizer. Luminescence was detected on a plate reader according to the manufacturer's instructions.
The remaining cells were assessed for cell viability by adding 25 μL of CellTiter-Glo (Promega, G9683) solution to each well, and being placed on a shaker for 10 minutes at room temperature. Luminescence was detected on a plate reader, according to the manufacturer's instructions.
In the tables “A” represents values≤0.050 μM; “B” represents values from >0.050 μM to ≤0.100 μM; “C” represents values from >0.100 μM to ≤0.250 μM; “D” represents values from >0.250 μM to ≤1 μM; “E” represents values>1 μM; and “NT”=not tested: […]

The nature of assay [1]: Mitochondria toxicity assay with PC3 cells, in-cell ELISA COX-1. Conditions: 5 days treatment. The procedure:
(§1) Exemplary compounds were tested for inhibition of expression of mitochondria DNA encoded proteins COX-1 […]. SDH-A (succinate dehydrogenase-A) is a control mitochondria protein encoded by nuclear DNA. Reduction in COX-1 expression indicates off target inhibition of mitochondria DNA synthesis which leads to mitochondrial toxicity. Assay procedures and results are described below.
(§2) PC3 cells were purchased from ATCC and cultured in F-12 Kaighn's modified medium (Hyclone), 10% heat-inactivated fetal bovine serum (Invitrogen), 1% Penicillin-Streptomycin (Invitrogen). PC3 cells were treated with a dose titration of a test compound on 96 well plates for 5 days at 37° C., 5% CO2 in a humidified incubator. The treatment plates are duplicated, one for in-cell ELISA for mitochondria proteins and one for cytotoxicity.
(§3) In-cell ELISA was performed to measure mitochondrial proteins using MitoBiogenesis In-Cell ELISA kit (Abcam) per manufacturer's instruction. The medium was aspirated from the compound treated cells, 100 μl per well of 4% paraformaldehyde (Solarbio) was added and cells were incubated at room temperature for 20 minutes. The cells were washed three times with PBS. 100 μl of 0.5% acetic acid was added per cell, and the cells were incubate at room temperature for 5 minutes. Cells were washed once with PBS. 100 μl per well of Permeabilization Buffer was added, and the cells incubate at room temperature for 30 minutes. The permeabilization buffer was removed and 200 μl per well 2× Blocking Buffer was added and the cells were incubated at room temperature for 2 hours. After removing the Blocking Buffer 100 μl per well of primary antibody to SDH-A or COX-1 was added, and the cells were incubated at 4° C. overnight. The primary antibody solution was removed and cells were washed 3 times with the Wash Buffer. 100 μl per well of AP- and HRP-labelled secondary antibodies was added, and the cells were incubated at room temperature for 1 hour. The cells were then washed 4 times with the Wash Buffer. For SDH-A detection, 100 μl per well AP Development Solution was added, and the cells were incubated at room temperature for 10 minutes. Cells were then read on CLARTO star^plus microplate reader (BMG Labtech) for kinetic readings at 405 nm for 5 minutes. […] The cells were then read on CLARTO star^plus microplate reader (BMG Labtech) for kinetic readings at 600 nm for 15 minutes.
(§4) In the table “A” represents values<1.0 μM; “B” represents values from >1.0 μM to ≤10.0 μM; “C” represents values from >10.0 μM to ≤50.0 μM; “D” represents values from >50.0 μM to ≤100.0 μM; and “E” represents values>100.0 μM.
(ELISA stands for enzyme-linked immunosorbent assay.)

Assay [2] deals with SDH-A (succinate dehydrogenase-A). Description: Mitochondria toxicity assay with PC3 cells, in-cell ELISA SDH-A. Conditions: 5 days treatment. The procedure:
as §1, §2, §3, §4

In another assay the test system is PC3 cells. Description: Mitochondria toxicity assay with PC3 cells, cytotoxicity (Cell Titer Glo). Conditions: Homo sapiens, PC-3, 120 h, 5 days treatment. The procedure:
as §2
For the cytotoxicity assay, the medium from the cell viability plate was removed, 50 μL per well of Cell Titer Glo (Promega, G9683) was added. Then the cells incubated for 30 minutes at room temperature. Luminescence was read by Envision (PerkinElmer 2105).
as §4
For orientation: Cellular ATP, detected with luciferase, serves as a proxy for viable cell number.

The structures appear in SMILES notation.

On to `CC[C@]1(CO)O[C@@H](n2cc(F)c(N)nc2=O)[C@@H](O)[C@@H]1O` [Compound 78, 4-amino-1-((2R,3S,4S,5R)-5-ethyl-3,4-dihydroxy-5-(hydroxymethyl)tetrahydrofuran-2-yl)-5-fluoropyrimidin-2(1H)-one], for which the 50% inhibitory concentration (IC50) is greater than 1 µM in the assay on THP1-Dual KO-TREX1 cells, greater than 100 µM in assay [1], greater than 100 µM in assay [2] and greater than 100 µM with PC3 cells.
For `Nc1cnn([C@H]2C[C@H](O)[C@](CO)(CCl)O2)c(=O)n1` [Compound 18, 5-amino-2-((2R,4S,5R)-5-(chloromethyl)-4-hydroxy-5-(hydroxymethyl)tetrahydrofuran-2-yl)-1,2,4-triazin-3(2H)-one], in the assay with THP1-Dual KO-TREX1 cells, the concentration for half-maximal inhibition (IC50) is greater than 1 µM.
Regarding `C#C[C@]1(CO)O[C@@H](n2cnc3c(N)nc(Cl)nc32)[C@@H](F)[C@@H]1O` [Compound 5, (2R,3R,4S,5R)-5-(6-amino-2-chloro-9H-purin-9-yl)-2-ethynyl-4-fluoro-2-(hydroxymethyl)tetrahydrofuran-3-ol], the IC50 in the assay with THP1-Dual KO-TREX1 cells was greater than 1 µM; in assay [1] it was 10 to 50 µM; in assay [2] it was greater than 100 µM; in the assay on PC3 cells it was greater than 100 µM.
`CC(C)[C@]1(CO)O[C@@H](n2ccc(N)nc2=O)C[C@@H]1O` [Compound 55, 4-amino-1-[(2R,4S,5R)-4-hydroxy-5-(hydroxymethyl)-5-isopropyloxolan-2-yl] pyrimidin-2-one]: the IC50 with THP1-Dual KO-TREX1 cells is greater than 1 µM; in assay [1], greater than 100 µM; in assay [2], greater than 100 µM; in the assay with PC3 cells, greater than 100 µM.
In the case of `Cc1cn([C@@H]2O[C@@](CO)(CCl)[C@@H](O)[C@@H]2F)c(=O)[nH]c1=O` [Compound 176], the IC50 is greater than 1 µM in the assay with THP1-Dual KO-TREX1 cells, greater than 100 µM in assay [1], greater than 100 µM in assay [2] and greater than 100 µM with PC3 cells.
Take `C=C[C@]1(CO)O[C@@H](n2cnc3c(=O)[nH]c(N)nc32)[C@@H](F)[C@@H]1O` [Compound 63, 2-amino-9-[(2R,3S,4R,5R)-5-ethenyl-3-fluoro-4-hydroxy-5-(hydroxymethyl)oxolan-2-yl]-1H-purin-6-one]: the 50% inhibitory concentration (IC50) in the assay with THP1-Dual KO-TREX1 cells is greater than 1 µM; in assay [1] it was 10 to 50 µM; in assay [2], 10 to 50 µM; with PC3 cells it was 10 to 50 µM.
In the case of `CC(C)C(=O)OC[C@@]1(CCl)O[C@@H](n2cc(F)c(N)nc2=O)C[C@@H]1OC(=O)C(C)C` [Compound 58], the IC50 with THP1-Dual KO-TREX1 cells was greater than 1 µM; in assay [1], 10 to 50 µM; in assay [2], greater than 100 µM; in the assay with PC3 cells, greater than 100 µM.
For `Nc1nc(F)nc2c1ncn2[C@H]1C[C@H](O)[C@](CO)(CCl)O1` [Compound 8, (2R,3S,5R)-5-(6-amino-2-fluoro-9H-purin-9-yl)-2-(chloromethyl)-2-(hydroxymethyl)tetrahydrofuran-3-ol], the half-maximal inhibitory concentration (IC50) in the assay on THP1-Dual KO-TREX1 cells is greater than 1 µM; in assay [1], 1 to 10 µM; in assay [2], 1 to 10 µM; with PC3 cells it was 1 to 10 µM.
For `Nc1ccn([C@@H]2O[C@@](CO)(CBr)[C@@H](O)[C@@H]2F)c(=O)n1` [Compound 172], the IC50 in the assay on THP1-Dual KO-TREX1 cells was greater than 1 µM; in assay [1], greater than 100 µM; in assay [2] it was greater than 100 µM; with PC3 cells it was greater than 100 µM.
For the compound `C#C[C@]1(CO)O[C@@H](n2cc(C)c(=O)[nH]c2=O)[C@@H](F)[C@@H]1O` [Compound 39, 1-((2R,3S,4R,5R)-5-ethynyl-3-fluoro-4-hydroxy-5-(hydroxymethyl)tetrahydrofuran-2-yl)-5-methylpyrimidine-2,4(1H,3H)-dione], the IC50 was greater than 1 µM with THP1-Dual KO-TREX1 cells, greater than 100 µM in assay [1], greater than 100 µM in assay [2] and greater than 100 µM in the assay with PC3 cells.
As for `O=c1ccn([C@H]2C[C@H](O)[C@](CO)(CCl)O2)c(=O)[nH]1` [Compound 34, 1-((2R,4S,5R)-5-(chloromethyl)-4-hydroxy-5-(hydroxymethyl)tetrahydro-furan-2-yl)pyrimidine-2,4(1H,3H)-dione], the IC50 in the assay on THP1-Dual KO-TREX1 cells is greater than 1 µM.
The same measure, in the same setting: next, `C#C[C@]1(CO)O[C@@H](n2ccc(=O)[nH]c2=O)[C@H](F)[C@@H]1O` [Compound 33, 1-((2R,3R,4R,5R)-5-ethynyl-3-fluoro-4-hydroxy-5-(hydroxymethyl)tetrahydro-furan-2-yl)pyrimidine-2,4(1H,3H)-dione]: greater than 1 µM; `C#C[C@]1(CO)O[C@@H](n2ccc(N)nc2=O)C[C@@H]1O` [Compound 41, 4-amino-1-((2R,4S,5R)-5-ethynyl-4-hydroxy-5-(hydroxymethyl)tetrahydro-furan-2-yl)pyrimidin-2(1H)-one]: greater than 1 µM; `CC#C[C@]1(CO)O[C@@H](n2cnc3c(N)nc(F)nc32)C[C@@H]1O` [Compound 1, (2R,3S,5R)-5-(6-amino-2-fluoro-9H-purin-9-yl)-2-(hydroxymethyl)-2-(prop-1-yn-1-yl)tetrahydrofuran-3-ol]: greater than 1 µM.
The same measure, in the same setting: the same measure for `O=c1ccn([C@@H]2O[C@@](CO)(CCl)[C@@H](O)[C@H]2F)c(=O)[nH]1` [Compound 29, 1-((2R,3R,4R,5R)-5-(chloromethyl)-3-fluoro-4-hydroxy-5-(hydroxymethyl)tetrahydrofuran-2-yl)pyrimidine-2,4(1H,3H)-dione]: greater than 1 µM.
Same read-out and setting: next, `C#C[C@]1(CO)O[C@@H](n2ccc(N)nc2=O)[C@H](F)[C@@H]1O` [Compound 32, 4-amino-1-((2R,3R,4R,5R)-5-ethynyl-3-fluoro-4-hydroxy-5-(hydroxymethyl)tetrahydrofuran-2-yl)pyrimidin-2(1H)-one]: greater than 1 µM; `O=c1nc(NO)ccn1[C@@H]1O[C@@](CO)(CCl)[C@@H](O)[C@H]1F` [Compound 28, 1-((2R,3R,4R,5R)-5-(chloromethyl)-3-fluoro-4-hydroxy-5-(hydroxymethyl)tetrahydrofuran-2-yl)-4-(hydroxyamino)pyrimidin-2(1H)-one]: greater than 1 µM.
In turn, `O=c1nc(NO)ccn1[C@H]1C[C@H](O)[C@](CO)(CCl)O1` [Compound 6, 1-((2R,4S,5R)-5-(chloromethyl)-4-hydroxy-5-(hydroxymethyl)tetrahydrofuran-2-yl)-4-(hydroxyamino)pyrimidin-2(1H)-one] gave a half-inhibitory concentration (IC50) in the assay on THP1-Dual KO-TREX1 cells greater than 1 µM.
Same read-out and setting: next, `C#C[C@@H]1[C@H](n2ccc(N)nc2=O)O[C@@](CO)(CCl)[C@H]1O` [Compound 17, 4-amino-1-((2R,3S,4S,5R)-5-(chloromethyl)-3-ethynyl-4-hydroxy-5-(hydroxymethyl)tetrahydrofuran-2-yl)pyrimidin-2(1H)-one]: greater than 1 µM.
The same measure, in the same setting: the same measure for `C#C[C@@H]1[C@H](n2ccc(N)nc2=O)O[C@](C)(CO)[C@H]1O` [Compound 20, 4-amino-1-((2R,3S,4S,5R)-3-ethynyl-4-hydroxy-5-(hydroxymethyl)-5-methyltetrahydrofuran-2-yl)pyrimidin-2(1H)-one]: greater than 1 µM.

Broadly, the IC50 is the point on the concentration scale where inhibition reaches its midpoint.

The record behind these values is patent US12187758B2 (ROME Therapeutics, Inc., priority 2022, dated 2025).
